Laboratory results reported in patent US9738634B2, “Heterocyclic amide compound and herbicide” (SYNGENTA PARTICIPATIONS AG, priority 2013, dated 2017).

Legend:
Assay type in all cases: in vivo
barnyard grass [1] = experiment: Test Example 1: weedkilling efficacy, preemergent weed treatment in the submerged state; A: barnyard grass; settings: treatment dosage 1000 g/ha
In short: (§1)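 Emulsion diluted with water to the specified per-hectare dosage is applied onto flood water (4 cm) over alluvial soil on the sowing day, with barnyard grass, bulrush and pondweed seeded and rice (2.5-leaf) transplanted; plants grow at 25–30 °C and are rated at 3 weeks.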

bulrush [2] = experiment: Test Example 1: weedkilling efficacy, preemergent weed treatment in the submerged state; B: bulrush; settings: treatment dosage 1000 g/ha
In short: as §1

oval-leafed pondweed [3] = experiment: Test Example 1: weedkilling efficacy, preemergent weed treatment in the submerged state; C: oval-leafed pondweed; settings: treatment dosage 1000 g/ha
In short: as §1

transplanted rice = experiment: Test Example 1: preemergent weed treatment in the submerged state, effect on crop; a: transplanted rice; settings: treatment dosage 1000 g/ha
In short: as §1

barnyard grass [4] = experiment: Test Example 2: weedkilling efficacy, growth period weed treatment in the submerged state; A: barnyard grass; settings: treatment dosage 1000 g/ha
In short: (§2)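 First, alluvial soil in pots is flooded to 4 cm and mixed seed is sown. Next, plants grow in a greenhouse at 25 to 30° C until the 1-2 leaf stage. Then diluted emulsion is applied onto the water surface at the given g/ha rate, and injury is assessed after 3 weeks.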

bulrush [5] = experiment: Test Example 2: weedkilling efficacy, growth period weed treatment in the submerged state; B: bulrush; settings: treatment dosage 1000 g/ha
In short: as §2

oval-leafed pondweed [6] = experiment: Test Example 2: weedkilling efficacy, growth period weed treatment in the submerged state; C: oval-leafed pondweed; settings: treatment dosage 1000 g/ha
In short: as §2

crabgrass [7] = experiment: Test Example 3: weedkilling efficacy through soil treatment; D: crabgrass; settings: treatment dosage 1250 g/ha
In short: (§3)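 Crop and weed responses were judged three weeks after a uniform surface spray of the water-diluted emulsion at the given g/ha rate. Seeds sat beneath about 1.5 cm of sterilized diluvial soil, and boxes stood in a greenhouse at 25 to 30° C.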

green foxtail [8] = experiment: Test Example 3: weedkilling efficacy through soil treatment; E: green foxtail; settings: treatment dosage 1250 g/ha
In short: as §3

wild oat [9] = experiment: Test Example 3: weedkilling efficacy through soil treatment; G: wild oat; settings: treatment dosage 1250 g/ha
In short: as §3

black-grass [10] = experiment: Test Example 3: weedkilling efficacy through soil treatment; H: black-grass; settings: treatment dosage 1250 g/ha
In short: as §3

Italian ryegrass [11] = experiment: Test Example 3: weedkilling efficacy through soil treatment; I: Italian ryegrass; settings: treatment dosage 1250 g/ha
In short: as §3

Indian mallow [12] = experiment: Test Example 3: weedkilling efficacy through soil treatment; K: Indian mallow; settings: treatment dosage 1250 g/ha
In short: as §3

redroot pigweed [13] = experiment: Test Example 3: weedkilling efficacy through soil treatment; L: redroot pigweed; settings: treatment dosage 1250 g/ha
In short: as §3

fig-leafed goosefoot [14] = experiment: Test Example 3: weedkilling efficacy through soil treatment; M: fig-leafed goosefoot; settings: treatment dosage 1250 g/ha
In short: as §3

chickweed [15] = experiment: Test Example 3: weedkilling efficacy through soil treatment; N: chickweed; settings: treatment dosage 1250 g/ha
In short: as §3

catchweed [16] = experiment: Test Example 3: weedkilling efficacy through soil treatment; O: catchweed; settings: treatment dosage 1250 g/ha
In short: as §3

birds-eye speedwell [17] = experiment: Test Example 3: weedkilling efficacy through soil treatment; p: birds-eye speedwell; settings: treatment dosage 1250 g/ha
In short: as §3

directly sown rice [18] = experiment: Test Example 3: soil treatment, effect on crop; b: directly sown rice; settings: treatment dosage 1250 g/ha
In short: as §3

corn [19] = experiment: Test Example 3: soil treatment, effect on crop; c: corn; settings: treatment dosage 1250 g/ha
In short: as §3

soybean [20] = experiment: Test Example 3: soil treatment, effect on crop; d: soybean; settings: treatment dosage 1250 g/ha
In short: as §3

wheat [21] = experiment: Test Example 3: soil treatment, effect on crop; e: wheat; settings: treatment dosage 1250 g/ha
In short: as §3

beet [22] = experiment: Test Example 3: soil treatment, effect on crop; f: beet; settings: treatment dosage 1250 g/ha
In short: as §3

crabgrass [23] = experiment: Test Example 4: weedkilling efficacy by foliar treatment; D: crabgrass; settings: treatment dosage 1250 g/ha
In short: (§4)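 Seeds are spot-sown into sterilized diluvial soil and covered with about 1.5 cm of soil. After 14 days' greenhouse growth at 25 to 30° C, plants are sprayed on stems and leaves with diluted emulsion at the stated g/ha rate, then scored at 3 weeks.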

green foxtail [24] = experiment: Test Example 4: weedkilling efficacy by foliar treatment; E: green foxtail; settings: treatment dosage 1250 g/ha
In short: as §4

wild oat [25] = experiment: Test Example 4: weedkilling efficacy by foliar treatment; G: wild oat; settings: treatment dosage 1250 g/ha
In short: as §4

black-grass [26] = experiment: Test Example 4: weedkilling efficacy by foliar treatment; H: black-grass; settings: treatment dosage 1250 g/ha
In short: as §4

Italian ryegrass [27] = experiment: Test Example 4: weedkilling efficacy by foliar treatment; I: Italian ryegrass; settings: treatment dosage 1250 g/ha
In short: as §4

Indian mallow [28] = experiment: Test Example 4: weedkilling efficacy by foliar treatment; K: Indian mallow; settings: treatment dosage 1250 g/ha
In short: as §4

redroot pigweed [29] = experiment: Test Example 4: weedkilling efficacy by foliar treatment; L: redroot pigweed; settings: treatment dosage 1250 g/ha
In short: as §4

fig-leafed goosefoot [30] = experiment: Test Example 4: weedkilling efficacy by foliar treatment; M: fig-leafed goosefoot; settings: treatment dosage 1250 g/ha
In short: as §4

chickweed [31] = experiment: Test Example 4: weedkilling efficacy by foliar treatment; N: chickweed; settings: treatment dosage 1250 g/ha
In short: as §4

catchweed [32] = experiment: Test Example 4: weedkilling efficacy by foliar treatment; O: catchweed; settings: treatment dosage 1250 g/ha
In short: as §4

birds-eye speedwell [33] = experiment: Test Example 4: weedkilling efficacy by foliar treatment; p: birds-eye speedwell; settings: treatment dosage 1250 g/ha
In short: as §4

directly sown rice [34] = experiment: Test Example 4: foliar treatment, effect on crop; b: directly sown rice; settings: treatment dosage 1250 g/ha
In short: as §4

corn [35] = experiment: Test Example 4: foliar treatment, effect on crop; c: corn; settings: treatment dosage 1250 g/ha
In short: as §4

soybean [36] = experiment: Test Example 4: foliar treatment, effect on crop; d: soybean; settings: treatment dosage 1250 g/ha
In short: as §4

wheat [37] = experiment: Test Example 4: foliar treatment, effect on crop; e: wheat; settings: treatment dosage 1250 g/ha
In short: as §4

beet [38] = experiment: Test Example 4: foliar treatment, effect on crop; f: beet; settings: treatment dosage 1250 g/ha
In short: as §4

`CC1=C(c2cccnc2Cl)C(=O)N(C(C)(C)C(=O)Nc2cccc(Cl)n2)CO1` [B-2-20] was tested, and the “A (barnyard grass) weedkilling efficacy grade” value (barnyard grass [1]) was 5 (weed kill ratio 90% or more, (practically complete withering)), the “B (bulrush) weedkilling efficacy grade” value (bulrush [2]) was 5 (weed kill ratio 90% or more, (practically complete withering)) and the “C (oval-leafed pondweed) weedkilling efficacy grade” value (oval-leafed pondweed [3]) was 4 (weed kill ratio 70% or more, less than 90%). For the same compound, the “a (transplanted rice) effect on crop grade” value (transplanted rice) was 0 (weed kill ratio 5% or less (practically no effect)), the “A (barnyard grass) weedkilling efficacy grade” value (barnyard grass [4]) was 1 (weed kill ratio 5% or more, less than 20%) and the “B (bulrush) weedkilling efficacy grade” value (bulrush [5]) was 5 (weed kill ratio 90% or more, (practically complete withering)). For the same compound, the “C (oval-leafed pondweed) weedkilling efficacy grade” value (oval-leafed pondweed [6]) was 3 (weed kill ratio 40% or more, less than 70%), the “D (crabgrass) weedkilling efficacy grade” value (crabgrass [7]) was 3 (weed kill ratio 40% or more, less than 70%) and the “E (green foxtail) weedkilling efficacy grade” value (green foxtail [8]) was 5 (weed kill ratio 90% or more, (practically complete withering)). For the same compound, the “G (wild oat) weedkilling efficacy grade” value (wild oat [9]) was 0 (weed kill ratio 5% or less (practically no effect)), the “H (black-grass) weedkilling efficacy grade” value (black-grass [10]) was 5 (weed kill ratio 90% or more, (practically complete withering)) and the “I (Italian ryegrass) weedkilling efficacy grade” value (Italian ryegrass [11]) was 5 (weed kill ratio 90% or more, (practically complete withering)). For the same compound, the “K (Indian mallow) weedkilling efficacy grade” value (Indian mallow [12]) was 2 (weed kill ratio 20% or more, less than 40%), the “L (redroot pigweed) weedkilling efficacy grade” value (redroot pigweed [13]) was 4 (weed kill ratio 70% or more, less than 90%) and the “M (fig-leafed goosefoot) weedkilling efficacy grade” value (fig-leafed goosefoot [14]) was 4 (weed kill ratio 70% or more, less than 90%). The “N (chickweed) weedkilling efficacy grade” value (chickweed [15]) was 3 (weed kill ratio 40% or more, less than 70%), the “O (catchweed) weedkilling efficacy grade” value (catchweed [16]) was 0 (weed kill ratio 5% or less (practically no effect)) and the “P (birds-eye speedwell) weedkilling efficacy grade” value (birds-eye speedwell [17]) was 4 (weed kill ratio 70% or more, less than 90%). For the same compound, the “b (directly sown rice) effect on crop grade” value (directly sown rice [18]) was 4 (weed kill ratio 70% or more, less than 90%), the “c (corn) effect on crop grade” value (corn [19]) was 0 (weed kill ratio 5% or less (practically no effect)) and the “d (soybean) effect on crop grade” value (soybean [20]) was 0 (weed kill ratio 5% or less (practically no effect)). For the same compound, the “e (wheat) effect on crop grade” value (wheat [21]) was 0 (weed kill ratio 5% or less (practically no effect)), the “f (beet) effect on crop grade” value (beet [22]) was 4 (weed kill ratio 70% or more, less than 90%) and the “D (crabgrass) weedkilling efficacy grade” value (crabgrass [23]) was 5 (weed kill ratio 90% or more, (practically complete withering)). For the same compound, the “E (green foxtail) weedkilling efficacy grade” value (green foxtail [24]) was 5 (weed kill ratio 90% or more, (practically complete withering)), the “G (wild oat) weedkilling efficacy grade” value (wild oat [25]) was 0 (weed kill ratio 5% or less (practically no effect)) and the “H (black-grass) weedkilling efficacy grade” value (black-grass [26]) was 4 (weed kill ratio 70% or more, less than 90%). For the same compound, the “I (Italian ryegrass) weedkilling efficacy grade” value (Italian ryegrass [27]) was 4 (weed kill ratio 70% or more, less than 90%), the “K (Indian mallow) weedkilling efficacy grade” value (Indian mallow [28]) was 0 (weed kill ratio 5% or less (practically no effect)) and the “L (redroot pigweed) weedkilling efficacy grade” value (redroot pigweed [29]) was 3 (weed kill ratio 40% or more, less than 70%). For the same compound, the “M (fig-leafed goosefoot) weedkilling efficacy grade” value (fig-leafed goosefoot [30]) was 3 (weed kill ratio 40% or more, less than 70%), the “N (chickweed) weedkilling efficacy grade” value (chickweed [31]) was 2 (weed kill ratio 20% or more, less than 40%) and the “O (catchweed) weedkilling efficacy grade” value (catchweed [32]) was 0 (weed kill ratio 5% or less (practically no effect)). The “P (birds-eye speedwell) weedkilling efficacy grade” value (birds-eye speedwell [33]) was 4 (weed kill ratio 70% or more, less than 90%), the “b (directly sown rice) effect on crop grade” value (directly sown rice [34]) was 0 (weed kill ratio 5% or less (practically no effect)) and the “c (corn) effect on crop grade” value (corn [35]) was 1 (weed kill ratio 5% or more, less than 20%). The “d (soybean) effect on crop grade” value (soybean [36]) was 3 (weed kill ratio 40% or more, less than 70%), the “e (wheat) effect on crop grade” value (wheat [37]) was 0 (weed kill ratio 5% or less (practically no effect)) and the “f (beet) effect on crop grade” value (beet [38]) was 4 (weed kill ratio 70% or more, less than 90%).
